The structures appear in SMILES notation.

One experiment concerns primary DRG neuron. The experiment in a line: Axon growth of primary DRG neurons (immunofluorescence, Neuro J). The settings on record: 10 μm, 24 hours. It counts as cell-based, C57BL/6J mice. On the procedure: Diabetic peripheral neuropathy involved a sensory neuron first, and a main pathological change was axonal atrophy and degeneration, or even disappearance. […] Therefore, the compounds in the examples were added with the primary DRG neuron to incubate for a certain period of time, then the axon growth of the DRG neuron was detected by immunofluorescence, and an axon length was quantified by Neuro J, so as to evaluate the promotion effect of the compound on the axon growth of the peripheral sensory neuron.
Primary antibodies of mice anti-β-tubulin III used for fluorescent staining were purchased from Sigma Company, cell culture reagents were all purchased from Gibco Company, and DRG neuronal cells were taken from C57BL/6J mice. Specific experimental steps were as follows: fresh DRG of the C57 mice was extracted to digest into a single-cell suspension and then inoculated into a culture plate for adherent culture overnight, with vinblastine as a positive drug, the to-be-detected compounds S1 to S87 ([…]) synthesized in the above examples were given to incubate for 24 hours, then an original culture medium was removed, 4% paraformaldehyde was added into each well to fix for 15 minutes after PBS washing, the mixture was permeabilized with 0.3% TritonX-100 for 5 minutes and sealed at room temperature with 4% BSA for 1 hour, a primary antibody (1:1000) was incubated at 4° C. overnight, a goat anti-mouse fluorescent secondary antibody (1:300) was incubated at room temperature in the dark for 1 hour, and a sealed slide was imaged by a fluorescence microscope (Leica). According to the image, a total axon length of a single DRG neuron was tracked by a Neuro J plug-in in Image J software, and a multiple of the total axon length relative to that of the blank control group was calculated.
`CC[C@@]12C=C(C(=O)NCC(=O)O)n3c4c(c5ccccc53)CCN(CCC1)[C@H]42` [Compound S66]: the “Promotion of axon growth of the primary DRG neuron compared with the positive drug (in words)” value is reported as “more outstanding effect”.

Still in this experiment, the particulars now being: Mus musculus, 24 hours, multiple of total axon length of a single DRG neuron relative to blank control group.
In general, fold induction refers to the signal under treatment as a multiple of the control signal. The compound `CC[C@@]12C=C(C(=O)NCC(=O)O)n3c4c(c5ccccc53)CCN(CCC1)[C@H]42` [Compound S66] came in with a fold induction at 10 µM of 12.8.

For the compound `CC[C@@]12C=C(C(=O)N[C@@H](CC(C)C)C(=O)O)n3c4c(c5ccccc53)CCN(CCC1)[C@H]42` [Compound S67], the fold induction at 10 µM came to 11.3. `CC[C@@]12C=C(C(=O)N[C@@H](CO)C(=O)O)n3c4c(c5ccccc53)CCN(CCC1)[C@H]42` [Compound S68] returned a fold induction at 10 µM of 11. `CC[C@@]12C=C(C(=O)N[C@H](C(=O)O)C(C)O)n3c4c(c5ccccc53)CCN(CCC1)[C@H]42` (some centres unmarked) [Compound S69] returned a fold induction at 10 µM of 12.3. Compound `CC[C@@]12C=C(C(=O)N[C@@H](CC(=O)O)C(=O)O)n3c4c(c5ccccc53)CCN(CCC1)[C@H]42` [Compound S70] gave a fold induction at 10 µM of 10.8.

With `CC[C@@]12C=C(C(=O)N[C@@H](CC(N)=O)C(=O)O)n3c4c(c5ccccc53)CCN(CCC1)[C@H]42` [Compound S71], the fold induction at 10 µM was found to be 10.5. In turn, `CC[C@@]12C=C(C(=O)N[C@@H](CN)C(=O)O)n3c4c(c5ccccc53)CCN(CCC1)[C@H]42` [Compound S72] registered a fold induction at 10 µM of 11.3. `CC[C@@]12C=C(C(=O)N[C@@H](C)C(=O)O)n3c4c(c5ccccc53)CCN(CCC1)[C@H]42` [Compound S73] returned a fold induction at 10 µM of 12.1. For `CC[C@@]12C=C(C(=O)N[C@H](C(=O)O)C(C)C)n3c4c(c5ccccc53)CCN(CCC1)[C@H]42` [Compound S74], the fold induction at 10 µM was determined as 10.9. For `CC[C@@]12C=C(C(=O)N[C@@H](Cc3ccccc3)C(=O)O)n3c4c(c5ccccc53)CCN(CCC1)[C@H]42` [Compound S75], the fold induction at 10 µM stood at 10.7. Take `CC[C@@]12C=C(C(=O)NCC(=O)N[C@@H](CS)C(=O)O)n3c4c(c5ccccc53)CCN(CCC1)[C@H]42` [Compound S76]: the fold induction at 10 µM came out at 11.1. Take `CC[C@@]12C=C(C(=O)NCC(=O)N[C@@H](CC(N)=O)C(=O)O)n3c4c(c5ccccc53)CCN(CCC1)[C@H]42` [Compound S77]: the fold induction at 10 µM worked out at 10.8. Compound `CC[C@@]12C=C(C(=O)NCC(=O)N[C@@H](Cc3ccc(O)cc3)C(=O)O)n3c4c(c5ccccc53)CCN(CCC1)[C@H]42` [Compound S78] showed a fold induction at 10 µM of 10.2. Turning to `CC[C@@]12C=C(C(=O)NCC(=O)N[C@@H](CC(C)C)C(=O)O)n3c4c(c5ccccc53)CCN(CCC1)[C@H]42` [Compound S79], the fold induction at 10 µM was 10.6. `CC[C@@]12C=C(C(=O)NCC(=O)N[C@H](C(=O)O)C(C)C)n3c4c(c5ccccc53)CCN(CCC1)[C@H]42` [Compound S80] gave a fold induction at 10 µM of 11.3. Compound `CC[C@@]12C=C(C(=O)NCC(=O)N[C@@H](CO)C(=O)O)n3c4c(c5ccccc53)CCN(CCC1)[C@H]42` [Compound S81] returned a fold induction at 10 µM of 11.9.

Regarding `CC[C@@]12C=C(C(=O)N[C@@H](C)C(=O)OC)n3c4c(c5ccccc53)CCN(CCC1)[C@H]42` [Compound S82], the fold induction at 10 µM came out at 12.5. The same measure, in the same setting: the result for `CC[C@@]12C=C(C(=O)NCC(=O)OC)n3c4c(c5ccccc53)CCN(CCC1)[C@H]42` [Compound S83] reads 12.7; that for `CC[C@@]12C=C(C(=O)N[C@H](C(=O)OC)C(C)C)n3c4c(c5ccccc53)CCN(CCC1)[C@H]42` [Compound S84], 11.

Regarding `CC[C@@]12C=C(C(=O)N[C@@H](CO)C(=O)OC)n3c4c(c5ccccc53)CCN(CCC1)[C@H]42` [Compound S85], the fold induction at 10 µM was 11.8. Regarding `CC[C@@]12C=C(C(=O)NCC(=O)N[C@@H](CC(C)C)C(=O)OC)n3c4c(c5ccccc53)CCN(CCC1)[C@H]42` [Compound S86], the fold induction at 10 µM was determined as 11. Same read-out and setting: then `CC[C@]12CCCN3CCc4c(n(c5ccccc45)[C@@](O)(C(=O)OC)C1)[C@@H]32` [Vincamine, reference compound], with 9.5.

For the origin of these results see patent publication US12600724B2, “Indole alkaloid and preparation method and use thereof” (NANJING UNIVERSITY OF CHINESE MEDICINE, priority 2022, dated 2026).
